{"source": "patent US20090124631A1", "about": "“Combination Therapy” (priority 2007, published 2009)", "key": {"[1]": {"system": "MT3 transcription in human colon cancer HCT15 cells", "assay": "MT3 transcription in HCT15 cells, real time RT-PCR", "format": "cell-based", "conditions": "1 uM", "method": "(§1) Total RNAs were extracted from cell pellets or from tumors using QiaShredder and RNeasy mini kit (Qiagen). 1 μg RNA was converted into cDNA using Expand RT enzyme (Roche) and Oligo(dT) primers (Invitrogen) in a 20 μl reaction volume. For quantitative real-time PCR, the primers used for MT3 were [NT] and [NT] and those for β-actin were [NT] and [NT]. Reactions with either pair of primers included an annealing temperature of 63.4° C. All real-time PCR reactions were performed on the MasterCycler ep Realplex (Eppendorf) using FastStart SYBRGreen Master (Roche)."}, "[2]": {"system": "human H460 non-small cell lung tumor xenograft", "assay": "H460 xenograft, iv-iv combination with taxol", "format": "in vivo, mouse", "conditions": "H460, Compound A 40 mg/kg i.v. with taxol 60 mg/kg i.v., single dose day 1", "method": "Antitumor studies were done using human H460 non-small cell lung tumor xenograft model in male BALBc/A nude mice (from Japan Crea Inc., Japan). Male nude mice were used at age 8-10 weeks. Human carcinoma cells were injected subcutaneously in the animal flank and allowed to form solid tumors. Tumor fragments (about 2 mm^3 fragments) were then removed and implanted subcutaneously to the right flank of other animals. […] Tumor volumes and gross body weight of animals were monitored twice weekly for up to 15 days. Each experimental group contained 6 animals."}, "[3]": {"system": "bFGF expression in A549 (NSCLC) xenografts", "assay": "bFGF expression in A549 xenografts", "format": "in vivo", "conditions": "150 mg/kg, p.o., qdx3"}, "[4]": {"system": "VEGF expression in DU145 cells", "assay": "VEGF transcription in Du145 cells in vitro", "format": "cell-based, human", "conditions": "24 hour treatment", "method": "Human prostate cancer Du145 cells were exposed to Cpd A or SAHA (3 microM) for 24 hours. Total RNA was collected by Isogen (Nippongene, Tokyo, Japan) and reverse-transcribed to cDNA by ExScript® RT reagent Kit (TAKARA, Kyoto, Japan). The expression level of bFGF mRNA was detected by ABI7700 analyzer using probe/primer pre-mixture reagent (ABI, Cat# Hs00266645_m1, CA, USA) and TaqMan® Universal PCR Master Mix (ABI, Cat# 430-4437) as described in the ABI's protocol. The expression level of VEGF mRNA was detected in a similar manner using the appropriate probe/primer reagents."}, "[5]": {"system": "MT3 transcription in human T-cell leukemia Jurkat-T cells", "assay": "MT3 transcription in Jurkat-T cells, real time RT-PCR", "format": "cell-based", "conditions": "24 hours", "method": "as §1"}}}
{"smiles": "Nc1ccccc1NC(=O)c1ccc(CNc2nccc(-c3cccnc3)n2)cc1", "note": "[Compound A]", "values": [{"measurement": "MT3 transcription", "setting": "[1]", "value": "much more potent than SAHA"}, {"measurement": "antitumor activity of taxol", "setting": "[2]", "value": "Potentiation"}, {"measurement": "bFGF expression", "setting": "[3]", "value": "suppression"}, {"measurement": "VEGF expression", "setting": "[4]", "value": "suppression"}, {"measurement": "MT3 transcription", "setting": "[5]", "value": "dose-dependent induction"}]}
